Experimental data taken from patent US6858638B2, “Substituted indazoles, compositions containing them, method of production and use” (Aventis Pharma S.A., priority 2002, dated 2005).

Experiments:
Assay type in all cases: biochemical
human FAK = target: T1, human FAK (Homo sapiens, UniProt Q05397); assay: FAK autophosphorylation inhibition, time resolved fluorescence (HTRF) assay; conditions: 10 μM (values without asterisk); read-out: FAK % inhib at 10 μM
T1 construct: The complete cDNA of human FAK; made in house; host or cells: baculovirus expression system (vector pFastBac HTc)
In short: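 His-tagged full-length human FAK from baculovirus (6.6 µg/ml) self-phosphorylates with 15 µM ATP in HEPES pH 7.2, MgCl2, vanadate, 1 h at 37 °C. HTRF detection (Eu-anti-phosphotyrosine / XL665-anti-His), 665/620 nm ratio; % inhibition vs untreated control, duplicate mean.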

human KDR enzyme = target: T2, human KDR enzyme (Homo sapiens, UniProt P35968); assay: KDR substrate (PLCγ) phosphorylation, scintillation assay; conditions: 10 μM; read-out: KDR % inhib at 10 μM
T2 construct: The cytoplasmic domain of the human KDR enzyme; GST; made in house; host or cells: SF21 insect cells (baculovirus)
In short: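 GST-fused human KDR cytoplasmic domain from SF21 cells (about 60% pure, 100 ng) phosphorylated 2 μg of GST-PLCγ SH2-SH3 fragment. The trigger solution held γ33P-ATP with 2 μM cold ATP, in MOPS buffer pH 7.2 with Mg2+, Mn2+, vanadate and NaF. Reactions ran 1 h at 37 °C, were stopped with EDTA and counted by scintillation; results are % inhibition versus the no-compound control.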

Aurora2 kinase = target: T3, Aurora2 kinase (Homo sapiens, UniProt O14965); assay: Aurora2 kinase radioactivity scintillation assay using nickel chelate (NuMA substrate); conditions: 10 μM; read-out: Aurora2 % inhib at 10 μM
T3 construct: A complete recombinant Aurora2 enzyme; His tag (N); made in house; host or cells: E. coli
T3 sequence (O14965 1-403): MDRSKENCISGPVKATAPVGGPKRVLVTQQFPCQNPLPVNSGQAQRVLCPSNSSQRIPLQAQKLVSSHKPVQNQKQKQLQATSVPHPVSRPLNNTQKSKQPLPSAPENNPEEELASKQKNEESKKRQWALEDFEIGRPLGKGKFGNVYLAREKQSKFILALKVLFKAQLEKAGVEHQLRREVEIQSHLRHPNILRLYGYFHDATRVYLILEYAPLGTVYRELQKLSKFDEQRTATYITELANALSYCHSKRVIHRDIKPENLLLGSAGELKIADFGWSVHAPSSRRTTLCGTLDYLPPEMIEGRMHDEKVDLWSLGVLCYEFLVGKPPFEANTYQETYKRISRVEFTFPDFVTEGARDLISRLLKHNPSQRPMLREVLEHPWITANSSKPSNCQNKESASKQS
In short: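 His-tagged full-length Aurora2 (0.02 μM, E. coli) phosphorylating His-tagged NuMA C-terminal fragment (0.5 μM) with 1 μM ATP plus [33P]-ATP, 30 min at 37 °C, pH 7.5 Tris buffer with MgCl2. Nickel-chelate scintillation read; percent inhibition versus no-compound control.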

[1] = target: T4, human IGF1R cytoplasmic domain (Homo sapiens, UniProt P08069); assay: IGF1R autophosphorylation inhibition, time resolved fluorescence (HTRF) assay; conditions: 10 μM; read-out: IGF1R % inhib at 10 μM
T4 construct: The human IGF1R cytoplasmic domain was cloned; made in house; host or cells: SF21 insect cells (baculovirus)
In short: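 GST-tagged human IGF1R cytoplasmic domain from SF21 cells incubated with compound in 50 mM Hepes pH 7.5, 5 mM MnCl2, 50 mM NaCl, […] ATP. Autophosphorylation detected by HTRF (Eu-K anti-phosphotyrosine, XL665 anti-GST) after EDTA/KF stop; percentage inhibition versus no-compound control.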

T1 sequence (Q05397 whole entry): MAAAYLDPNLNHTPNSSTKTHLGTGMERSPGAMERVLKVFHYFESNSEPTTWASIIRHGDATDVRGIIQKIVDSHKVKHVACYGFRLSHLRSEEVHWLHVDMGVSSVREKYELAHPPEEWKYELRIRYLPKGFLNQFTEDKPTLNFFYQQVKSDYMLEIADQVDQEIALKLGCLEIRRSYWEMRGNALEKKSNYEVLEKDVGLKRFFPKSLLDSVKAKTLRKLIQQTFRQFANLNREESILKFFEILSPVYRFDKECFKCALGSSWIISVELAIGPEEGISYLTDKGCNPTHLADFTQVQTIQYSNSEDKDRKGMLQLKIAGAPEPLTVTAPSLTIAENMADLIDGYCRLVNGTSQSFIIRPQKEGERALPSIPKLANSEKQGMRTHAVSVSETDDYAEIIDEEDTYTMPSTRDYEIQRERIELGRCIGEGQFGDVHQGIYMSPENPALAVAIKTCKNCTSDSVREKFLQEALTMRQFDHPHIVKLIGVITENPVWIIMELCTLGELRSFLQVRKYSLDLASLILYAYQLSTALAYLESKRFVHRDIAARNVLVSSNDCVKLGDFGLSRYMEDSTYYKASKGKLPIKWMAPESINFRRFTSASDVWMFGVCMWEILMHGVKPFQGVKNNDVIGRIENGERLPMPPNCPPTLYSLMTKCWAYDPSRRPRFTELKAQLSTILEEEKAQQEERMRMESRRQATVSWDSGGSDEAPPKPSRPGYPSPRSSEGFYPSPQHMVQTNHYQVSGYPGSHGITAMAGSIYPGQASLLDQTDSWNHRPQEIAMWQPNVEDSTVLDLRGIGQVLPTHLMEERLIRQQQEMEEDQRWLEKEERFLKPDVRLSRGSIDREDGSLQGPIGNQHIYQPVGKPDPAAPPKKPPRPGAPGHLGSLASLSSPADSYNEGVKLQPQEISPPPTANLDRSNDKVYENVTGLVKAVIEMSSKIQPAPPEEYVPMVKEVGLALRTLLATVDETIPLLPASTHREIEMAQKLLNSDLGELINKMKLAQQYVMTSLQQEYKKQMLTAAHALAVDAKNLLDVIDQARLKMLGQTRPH
T4 sequence (P08069 960-1367 limits assumed): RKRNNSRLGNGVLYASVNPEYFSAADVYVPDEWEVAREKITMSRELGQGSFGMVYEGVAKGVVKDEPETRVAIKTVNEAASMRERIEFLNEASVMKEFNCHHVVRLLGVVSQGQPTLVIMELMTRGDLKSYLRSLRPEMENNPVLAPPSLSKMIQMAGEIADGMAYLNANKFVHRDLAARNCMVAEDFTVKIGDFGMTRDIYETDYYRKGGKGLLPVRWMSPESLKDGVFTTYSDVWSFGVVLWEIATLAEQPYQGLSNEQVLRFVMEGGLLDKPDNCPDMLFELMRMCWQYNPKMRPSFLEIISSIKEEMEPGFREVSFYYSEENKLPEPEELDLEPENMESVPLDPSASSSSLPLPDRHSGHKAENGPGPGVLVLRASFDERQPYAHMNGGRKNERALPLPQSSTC
T2 sequence (P35968 786-1356 limits assumed): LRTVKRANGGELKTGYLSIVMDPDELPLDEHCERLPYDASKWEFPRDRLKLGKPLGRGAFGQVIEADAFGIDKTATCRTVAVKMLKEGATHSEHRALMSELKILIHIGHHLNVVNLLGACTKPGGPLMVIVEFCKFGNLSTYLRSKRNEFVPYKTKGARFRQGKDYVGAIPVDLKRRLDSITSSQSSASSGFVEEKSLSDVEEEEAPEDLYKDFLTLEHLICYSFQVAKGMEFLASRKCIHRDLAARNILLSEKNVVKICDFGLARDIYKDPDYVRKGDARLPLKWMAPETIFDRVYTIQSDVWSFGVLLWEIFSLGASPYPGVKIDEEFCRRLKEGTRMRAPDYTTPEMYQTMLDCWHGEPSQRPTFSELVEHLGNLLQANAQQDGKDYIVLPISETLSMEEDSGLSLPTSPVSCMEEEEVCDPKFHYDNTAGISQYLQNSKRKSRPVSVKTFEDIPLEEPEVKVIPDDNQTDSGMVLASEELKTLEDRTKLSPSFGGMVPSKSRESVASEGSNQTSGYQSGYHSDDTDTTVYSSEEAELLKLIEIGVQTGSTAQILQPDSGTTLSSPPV

| Structure (SMILES) | inhibition at 10 µM (human FAK) [%] | inhibition at 10 µM (human KDR enzyme) [%] | inhibition at 10 µM (Aurora2 kinase) [%] | inhibition at 10 µM [1] [%] |
| --- | --- | --- | --- | --- |
| CS(=O)(=O)c1ccccc1S(=O)(=O)Nc1ccc2[nH]nc(-c3ccc(C(F)(F)F)cc3)c2c1 [Example 176, N-[3-(4-Trifluoromethylphenyl)-1H-indazol-5-yl]-2-methanesulfonyl-benzenesulfonamide] | 66 | 70 | 88 | 83 |
| CS(=O)(=O)c1ccccc1S(=O)(=O)Nc1ccc2[nH]nc(-c3cccc(Cl)c3)c2c1 [Example 177, N-[3-(3-Chlorophenyl)-1H-indazol-5-yl]-2-methanesulfonyl-benzenesulfonamide] | 97 | 71 | 95 | 80 |
| COc1cccc(-c2n[nH]c3ccc(NS(=O)(=O)c4ccccc4S(C)(=O)=O)cc23)c1 [Example 178, 2-Methanesulfonyl-N-[3-(3-methoxyphenyl)-1H-indazol-5-yl]benzenesulfonamide] | 95 | 44 | 90 | 67 |
| Cc1cc(C)cc(-c2n[nH]c3ccc(NS(=O)(=O)c4ccccc4S(C)(=O)=O)cc23)c1 [Example 179, 2-Methanesulfonyl-N-[3-(3,5-dimethylphenyl)-1H-indazol-5-yl]benzenesulfonamide] | 96 | 49 | 93 | 72 |
| CS(=O)(=O)c1ccccc1S(=O)(=O)Nc1ccc2[nH]nc(-c3cc4ccccc4o3)c2c1 [Example 180, N-(3-Benzofuran-2-yl-1H-indazol-5-yl)-2-methanesulfonyl-benzenesulfonamide] | 95 | 29 | 99 | 93 |
| CS(=O)(=O)c1ccccc1S(=O)(=O)Nc1ccc2[nH]nc(-c3ccc(Cl)s3)c2c1 [Example 181, N-[3-(5-Chlorothiophen-2-yl)-1H-indazol-5-yl]-2-methanesulfonyl-benzenesulfonamide] | 83 | 49 | 94 | 55 |
| CS(=O)(=O)c1ccccc1S(=O)(=O)Nc1ccc2[nH]nc(-c3cccc(F)c3)c2c1 [Example 182, N-[3-(3-Fluorophenyl)-1H-indazol-5-yl]-2-methanesulfonyl-benzenesulfonamide] | 96 | 68 | 94 | 69 |
| COc1ccccc1-c1n[nH]c2ccc(NS(=O)(=O)c3ccccc3S(C)(=O)=O)cc12 [Example 183, 2-Methanesulfonyl-N-[3-(2-methoxyphenyl)-1H-indazol-5-yl]benzenesulfonamide] | 82 | 37 | 90 | 50 |
| CS(=O)(=O)c1ccccc1S(=O)(=O)Nc1ccc2[nH]nc(-c3cccc(Br)c3)c2c1 [Example 184, N-[3-(3-Bromophenyl)-1H-indazol-5-yl]-2-methanesulfonyl-benzenesulfonamide] | 96 | 61 | 93 | 73 |
| C=Cc1ccc(-c2n[nH]c3ccc(NS(=O)(=O)c4ccccc4S(C)(=O)=O)cc23)cc1 [Example 185, 2-Methanesulfonyl-N-[3-(4-vinylphenyl)-1H-indazol-5-yl]-benzenesulfonamide] | 92 | 58 | 94 | 77 |
| CCOc1cccc(-c2n[nH]c3ccc(NS(=O)(=O)c4ccccc4S(C)(=O)=O)cc23)c1 [Example 186, N-[3-(3-Ethoxyphenyl)-1H-indazol-5-yl]-2-methanesulfonyl-benzenesulfonamide] | 94 | 35 | 90 | 60 |
| CS(=O)(=O)c1ccccc1S(=O)(=O)Nc1ccc2[nH]nc(-c3ccccc3Cl)c2c1 [Example 187, N-[3-(2-Chlorophenyl)-1H-indazol-5-yl]-2-methanesulfonyl-benzenesulfonamide] | 46 | 49 | 67 | 52 |
| CS(=O)(=O)c1ccccc1S(=O)(=O)Nc1ccc2[nH]nc(-c3ccccc3F)c2c1 [Example 188, N-[3-(2-Fluorophenyl)-1H-indazol-5-yl]-2-methanesulfonyl-benzenesulfonamide] | 91 | 64 | 74 | 61 |
| CCOc1ccccc1-c1n[nH]c2ccc(NS(=O)(=O)c3ccccc3S(C)(=O)=O)cc12 [Example 189, N-[3-(2-Ethoxyphenyl)-1H-indazol-5-yl]-2-methanesulfonyl-benzenesulfonamide] | 70 | 20 | 62 | 31 |
| CCOc1ccc(-c2n[nH]c3ccc(NS(=O)(=O)c4ccccc4S(C)(=O)=O)cc23)cc1 [Example 190, N-[3-(4-Ethoxyphenyl)-1H-indazol-5-yl]-2-methanesulfonyl-benzenesulfonamide] | 96 | 50 | 95 | 74 |
| CS(=O)(=O)c1ccccc1S(=O)(=O)Nc1ccc2[nH]nc(-c3ccc(CO)cc3)c2c1 [Example 191, N-[3-(4-Hydroxymethylphenyl)-1H-indazol-5-yl]-2-methanesulfonyl-benzenesulfonamide] | 96 | 45 | 88 | 73 |
| CS(=O)(=O)c1ccccc1S(=O)(=O)Nc1ccc2[nH]nc(-c3ccc(F)c(F)c3)c2c1 [Example 192, N-[3-(3,4-Difluorophenyl)-1H-indazol-5-yl]-2-methanesulfonyl-benzenesulfonamide] | 90 | 47 | 89 | 72 |
| CCc1ccc(-c2n[nH]c3ccc(NS(=O)(=O)c4ccccc4S(C)(=O)=O)cc23)cc1 [Example 193, N-[3-(4-Ethylphenyl)-1H-indazol-5-yl]-2-methanesulfonyl-benzenesulfonamide] | 76 | 56 | 88 | 65 |
| CS(=O)(=O)c1ccccc1S(=O)(=O)Nc1ccc2[nH]nc(-c3ccc(OCc4ccccc4)c(F)c3)c2c1 [Example 194, N-[3-(4-Benzyloxy-3-fluoro-phenyl)-1H-indazol-5-yl]-2-methanesulfonyl-benzenesulfonamide] | 44 | 39 | 58 | 41 |
| Cc1ccc(-c2n[nH]c3ccc(NS(=O)(=O)c4ccccc4S(C)(=O)=O)cc23)cc1C [Example 195, 2-Methanesulfonyl-N-[3-(3,4-dimethylphenyl)-1H-indazol-5-yl]benzenesulfonamide] | 91 | 47 | 91 | 75 |
| CS(=O)(=O)c1ccccc1S(=O)(=O)Nc1ccc2[nH]nc(-c3ccc4c(c3)OCO4)c2c1 [Example 196, N-[3-(Benzo[1,3]dioxol-5-yl)-1H-indazol-5-yl]-2-methanesulfonyl-benzenesulfonamide] | 94 | 73 | 94 | 76 |
| CC(C)(C)c1ccc(-c2n[nH]c3ccc(NS(=O)(=O)c4ccccc4S(C)(=O)=O)cc23)cc1 [Example 197, N-[3-(4-tert-Butylphenyl)-1H-indazol-5-yl]-2-methanesulfonyl-benzenesulfonamide] | 43 | 41 | 73 | 0 |
